According to US20230023092A1, “TREATMENT OF DEPRESSION AND OTHER VARIOUS DISORDERS WITH PSILOCYBIN” (COMPASS […], priority 2019, published 2023):

Tested on: healthy subjects
Assay: Phase 1 study: adverse events (TEAEs, MedDRA coded)
Assay type: in vivo, human
Description: A Phase 1 randomized, double-blind, placebo-controlled study to evaluate the effect of psilocybin on cognitive and emotional processing as compared to placebo in healthy volunteers was conducted. The study investigated the short-term (Day 7) and long-term (Day 28) effects of moderate (10 mg) and high doses (25 mg) of psilocybin on key domains of cognition, such as episodic memory, attention, working and spatial memory, social cognition and elements of executive function, including cognitive flexibility.
Each subject was assigned 1 treatment bottle containing 5 capsules packaged in a double-blind fashion, depending on the randomized treatment arm, the bottle contained one of the following: • a. Psilocybin 10 mg: 2×5-mg oral psilocybin capsules plus 3×placebo capsules • b. Psilocybin 25 mg: 5×5-mg oral psilocybin capsules • c. Placebo: 5×placebo capsules
Each 5-mg oral psilocybin capsules comprised 5 mg crystalline psilocybin in the form or Polymorph A, 12.5 mg of SMCC 50, 79.5 mg of SMCC 90, 1 mg sodium starch glycolate, 1 mg colloidal silicon dioxide, and 1 mg sodium stearyl fumarate
Adverse events: Throughout the course of the study, all AEs were monitored and recorded. Each AE was classified according to the following criteria: • i. […] Moderate: The AE produces some impairment of functioning, but is not hazardous to the subject's health. • iii. Severe: The AE produces significant impairment of functioning or incapacitation and is a definite hazard to the subject's health.
Visit 3 (V3): Drug Administration (Day 0): The subject was asked to eat a light breakfast at least two hours prior to coming to the clinic for study drug administration. On Day 0 (V3), the subject underwent the SSTS, had vital signs obtained, medications reviewed, AEs recorded and eligibility reviewed prior to being randomized to study drug. The study drug was administered to up to six subjects simultaneously in individual beds separated by a curtain. The subject was invited to put on eyeshades and headphones, lie down and listen to calming music for the rest of the session (six hours). The subject was supported 1:1 with a chaperone and supervised by the study psychiatrist and lead therapist.
During administration of psilocybin, each subject received one-on-one support from a trained assisting therapist and each dosing session was supervised by a study psychiatrist and a lead therapist. The study drug was administered simultaneously to up to six participants as a single 5-capsule oral dose (10 mg psilocybin: 2×5-mg psilocybin capsules plus 3×placebo capsules; 25 mg psilocybin: 5×5-mg psilocybin capsules; placebo: 5×placebo capsules). Twenty-five dosing sessions were completed, with up to six participants dosed simultaneously per session. Each session lasted approximately 6 to 8 hours with subjects encouraged to relax and engage in introspection for the duration. After the acute effects of the study drug had subsided, subjects were discharged.

CN(C)CCc1c[nH]c2cccc(OP(=O)(O)O)c12 [Psilocybin, psilocybin]
8 (26.7): Somatic hallucination, N (%) (10 mg oral)
5 (16.7): Mood altered, worst severity Moderate, N (%) (10 mg oral)
21 (70.0): Nervous system disorders, N (%) (10 mg oral)
104: Selected TEAE: Psychiatric disorders, Events (10 mg oral)
1 (3.3): Memory impairment, N (%) (10 mg oral) | Musculoskeletal and connective tissue disorders, N (%) (10 mg oral) | Musculoskeletal and connective tissue disorders, worst severity Moderate, N (%) (10 mg oral) | Nausea, N (%) (10 mg oral) | Psychomotor skills impaired, N (%) (10 mg oral) | Somatic hallucination, worst severity Mild, N (%) (10 mg oral) | Tension headache, worst severity Mild, N (%) (10 mg oral) | Time perception altered, worst severity Mild, N (%) (10 mg oral) | Time perception altered, worst severity Moderate, N (%) (10 mg oral)
9: Mood altered, worst severity Severe, Events (10 mg oral)
12 (40.0): Illusion, worst severity Moderate, N (%) (10 mg oral)
10 (33.3): Psychiatric disorders, worst severity Severe, N (%) (10 mg oral)
16: Illusion, worst severity Moderate, Events (10 mg oral)
3 (10.0): Tension headache, N (%) (10 mg oral)
5: Reported 'Mood altered' events: Introspection (number) (10 mg psilocybin (n = 30))
95.9%: AEs deemed potentially related to study treatment, % of AEs of the arm (25 mg oral)
2: Infections and infestations, worst severity Mild, Events (10 mg oral) | Infections and infestations, worst severity Moderate, Events (10 mg oral) | Investigations, Events (10 mg oral) | Investigations, worst severity Mild, Events (10 mg oral) | Mood altered, worst severity Mild, Events (10 mg oral) | Selected TEAE: Nervous system disorders, Events (10 mg oral) | Tension headache, worst severity Moderate, Events (10 mg oral) | Time perception altered, Events (10 mg oral) | Reported 'Mood altered' events: Increased empathy (number) (10 mg psilocybin (n = 30))
23: Mood altered, Events (10 mg oral) | Nervous system disorders, worst severity Mild, Events (10 mg oral)
7: Illusion, worst severity Mild, Events (10 mg oral) | Somatic hallucination, worst severity Moderate, Events (10 mg oral)
13 (43.3): Mood altered, N (%) (10 mg oral) | Psychiatric disorders, worst severity Moderate, N (%) (10 mg oral)
0: Hypoaesthesia, worst severity Moderate, N (%) (10 mg oral) | Hypoaesthesia, worst severity Severe, Events (10 mg oral) | Hypoaesthesia, worst severity Severe, N (%) (10 mg oral) | Illusion, worst severity Severe, Events (10 mg oral) | Illusion, worst severity Severe, N (%) (10 mg oral) | Infections and infestations, worst severity Severe, Events (10 mg oral) | Infections and infestations, worst severity Severe, N (%) (10 mg oral) | Investigations, worst severity Moderate, Events (10 mg oral) | Investigations, worst severity Moderate, N (%) (10 mg oral) | Investigations, worst severity Severe, Events (10 mg oral) | Investigations, worst severity Severe, N (%) (10 mg oral) | Mental fatigue, Events (10 mg oral) | Mental fatigue, N (%) (10 mg oral) | Musculoskeletal and connective tissue disorders, worst severity Mild, Events (10 mg oral) | Musculoskeletal and connective tissue disorders, worst severity Mild, N (%) (10 mg oral) | Musculoskeletal and connective tissue disorders, worst severity Severe, Events (10 mg oral) | Musculoskeletal and connective tissue disorders, worst severity Severe, N (%) (10 mg oral) | Nervous system disorders, worst severity Severe, Events (10 mg oral) | Nervous system disorders, worst severity Severe, N (%) (10 mg oral) | Paraesthesia, worst severity Moderate, Events (10 mg oral) | Paraesthesia, worst severity Moderate, N (%) (10 mg oral) | Paraesthesia, worst severity Severe, Events (10 mg oral) | Paraesthesia, worst severity Severe, N (%) (10 mg oral) | Respiratory, thoracic and mediastinal disorders, Events (10 mg oral) | Respiratory, thoracic and mediastinal disorders, N (%) (10 mg oral) | Somatic hallucination, worst severity Severe, Events (10 mg oral) | Somatic hallucination, worst severity Severe, N (%) (10 mg oral) | Substance-induced psychotic disorder, Events (10 mg oral) | Substance-induced psychotic disorder, N (%) (10 mg oral) | Tension headache, worst severity Severe, Events (10 mg oral) | Tension headache, worst severity Severe, N (%) (10 mg oral) | Time perception altered, worst severity Severe, Events (10 mg oral) | Time perception altered, worst severity Severe, N (%) (10 mg oral) | Reported 'Mood altered' events: Calm (number) (10 mg psilocybin (n = 30)) | Reported 'Mood altered' events: Clarity of thought (number) (10 mg psilocybin (n = 30)) | Reported 'Mood altered' events: Feeling of adrenaline release (number) (10 mg psilocybin (n = 30)) | Reported 'Mood altered' events: Increased compassion (number) (10 mg psilocybin (n = 30)) | Reported 'Mood altered' events: Increased creativity (number) (10 mg psilocybin (n = 30)) | Reported 'Mood altered' events: Increased sense of connectedness (number) (10 mg psilocybin (n = 30)) | Reported 'Mood altered' events: More socially upbeat (number) (10 mg psilocybin (n = 30)) | Reported 'Mood altered' events: Negative mood (number) (10 mg psilocybin (n = 30)) | Reported 'Mood altered' events: Saw themselves from a new perspective (number) (10 mg psilocybin (n = 30)) | Reported 'Mood altered' events: Unusual appreciation of music (number) (10 mg psilocybin (n = 30))
25: Illusion, Events (10 mg oral)
3: Tension headache, Events (10 mg oral) | Reported 'Mood altered' events: Reflections (number) (10 mg psilocybin (n = 30)) | Affect lability, Events (25 mg oral)
15 (50.0): Nervous system disorders, worst severity Mild, N (%) (10 mg oral)
6: Psychiatric disorders, worst severity Mild, Events (10 mg oral)
19 (63.3): Illusion, N (%) (10 mg oral)
7 (23.3): Illusion, worst severity Mild, N (%) (10 mg oral) | Somatic hallucination, worst severity Moderate, N (%) (10 mg oral)
29: Psychiatric disorders, worst severity Moderate, Events (10 mg oral)
6 (20.0): Mood altered, worst severity Severe, N (%) (10 mg oral) | Nervous system disorders, worst severity Moderate, N (%) (10 mg oral)
35: Nervous system disorders, Events (10 mg oral)
4: Infections and infestations, Events (10 mg oral) | Paraesthesia, Events (10 mg oral) | Paraesthesia, worst severity Mild, Events (10 mg oral) | Reported 'Mood altered' events: Sense of oneness (number) (10 mg psilocybin (n = 30))
4 (13.3): Infections and infestations, N (%) (10 mg oral) | Paraesthesia, N (%) (10 mg oral) | Paraesthesia, worst severity Mild, N (%) (10 mg oral) | Psychiatric disorders, worst severity Mild, N (%) (10 mg oral)
96.7%: Adverse events reported by % of subjects (10 mg oral, 12-week study)
8: Mood altered, worst severity Moderate, Events (10 mg oral) | Nervous system disorders, worst severity Moderate, Events (10 mg oral) | Somatic hallucination, Events (10 mg oral)
27 (90.0): Psychiatric disorders, N (%) (10 mg oral) | Selected TEAE: Psychiatric disorders, N (%) (10 mg oral)
21: Psychiatric disorders, worst severity Severe, Events (10 mg oral)
121: Psychiatric disorders, Events (10 mg oral)
1: Memory impairment, Events (10 mg oral) | Musculoskeletal and connective tissue disorders, Events (10 mg oral) | Musculoskeletal and connective tissue disorders, worst severity Moderate, Events (10 mg oral) | Nausea, Events (10 mg oral) | Psychomotor skills impaired, Events (10 mg oral) | Somatic hallucination, worst severity Mild, Events (10 mg oral) | Tension headache, worst severity Mild, Events (10 mg oral) | Time perception altered, worst severity Mild, Events (10 mg oral) | Time perception altered, worst severity Moderate, Events (10 mg oral) | Reported 'Mood altered' events: Being less judgmental (number) (10 mg psilocybin (n = 30)) | Reported 'Mood altered' events: Contemplative state (number) (10 mg psilocybin (n = 30)) | Reported 'Mood altered' events: Feeling more moody/sensitive (number) (10 mg psilocybin (n = 30)) | Reported 'Mood altered' events: Feeling rested (number) (10 mg psilocybin (n = 30)) | Reported 'Mood altered' events: Increased wit (number) (10 mg psilocybin (n = 30)) | Reported 'Mood altered' events: Laughter (number) (10 mg psilocybin (n = 30)) | Reported 'Mood altered' events: Sense of openness (number) (10 mg psilocybin (n = 30))
2 (6.7): Infections and infestations, worst severity Mild, N (%) (10 mg oral) | Infections and infestations, worst severity Moderate, N (%) (10 mg oral) | Investigations, N (%) (10 mg oral) | Investigations, worst severity Mild, N (%) (10 mg oral) | Mood altered, worst severity Mild, N (%) (10 mg oral) | Selected TEAE: Nervous system disorders, N (%) (10 mg oral) | Tension headache, worst severity Moderate, N (%) (10 mg oral) | Time perception altered, N (%) (10 mg oral)
